Patent US8106055B2, “Substituted amide compounds” (Gruenenthal GmbH, priority 2007, dated 2012)
Where two headings read alike, the source gives them in different places.

Columns and labels:
[1] = target: T1, human bradykinin 1 receptor (B1R) (Homo sapiens, UniProt P46663); experiment: Functional investigation on the human bradykinin 1 receptor (B1R), Ca2+ FLIPR assay in CHO K1 hB1R cells; format: cell-based; conditions: for B1R Ant. h [10 μM] % Inhibition: B1R antagonism human
T1 construct: expressed in transfected cells; host or cells: CHO K1 cells
T1 sequence (P46663 1-353): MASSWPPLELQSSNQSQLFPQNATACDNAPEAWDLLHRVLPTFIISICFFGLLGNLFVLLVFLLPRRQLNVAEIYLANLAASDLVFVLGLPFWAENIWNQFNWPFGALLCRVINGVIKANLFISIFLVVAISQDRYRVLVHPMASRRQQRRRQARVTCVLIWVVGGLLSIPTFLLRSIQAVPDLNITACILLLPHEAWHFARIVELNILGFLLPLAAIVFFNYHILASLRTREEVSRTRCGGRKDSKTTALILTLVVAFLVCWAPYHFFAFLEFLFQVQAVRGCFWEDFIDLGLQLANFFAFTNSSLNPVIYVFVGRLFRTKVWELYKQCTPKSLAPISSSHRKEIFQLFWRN
Summary of the method: (§1)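 Peak Ca2+-dependent fluorescence in B1R-transfected CHO K1 cells measures antagonism of an EC80 agonist challenge given 10-20 min after compound. Agonist is Lys-Des-Arg9-bradykinin for human, Des-Arg9-bradykinin for rat receptor.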

[2] = target: T2, bradykinin 1 receptor (B1R) of the rat (Rattus norvegicus, UniProt P97583); experiment: Functional investigation on the rat bradykinin 1 receptor (B1R), Ca2+ FLIPR assay in CHO K1 rB1R cells; format: cell-based
T2 construct: expressed in transfected cells; host or cells: CHO K1 cells
T2 sequence (P97583 1-337): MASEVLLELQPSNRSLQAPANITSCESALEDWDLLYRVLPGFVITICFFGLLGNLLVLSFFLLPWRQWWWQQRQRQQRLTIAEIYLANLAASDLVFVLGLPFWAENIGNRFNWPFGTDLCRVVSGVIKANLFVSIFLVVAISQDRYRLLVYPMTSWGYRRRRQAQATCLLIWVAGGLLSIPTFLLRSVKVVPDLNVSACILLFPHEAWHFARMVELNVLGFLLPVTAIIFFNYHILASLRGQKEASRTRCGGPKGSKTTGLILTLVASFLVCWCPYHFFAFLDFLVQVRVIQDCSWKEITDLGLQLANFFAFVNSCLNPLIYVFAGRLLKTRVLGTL
Summary of the method: as §1

human μ opiate receptor = target: T3, human μ opiate receptor (Homo sapiens, UniProt P35372); experiment: Affinity for the human μ opiate receptor ([3H]-naloxone displacement, CHO-K1 receptor membrane preparation, SPA); format: binding; conditions: 1.5 h, Table 2; test concentration 1 μM; read-out: μ receptor
T3 construct: purchased PerkinElmer Life Sciences, Zaventem, Belgium RB-HOM; host or cells: CHO-K1 cells (membrane preparation)
T3 sequence (P35372 whole entry): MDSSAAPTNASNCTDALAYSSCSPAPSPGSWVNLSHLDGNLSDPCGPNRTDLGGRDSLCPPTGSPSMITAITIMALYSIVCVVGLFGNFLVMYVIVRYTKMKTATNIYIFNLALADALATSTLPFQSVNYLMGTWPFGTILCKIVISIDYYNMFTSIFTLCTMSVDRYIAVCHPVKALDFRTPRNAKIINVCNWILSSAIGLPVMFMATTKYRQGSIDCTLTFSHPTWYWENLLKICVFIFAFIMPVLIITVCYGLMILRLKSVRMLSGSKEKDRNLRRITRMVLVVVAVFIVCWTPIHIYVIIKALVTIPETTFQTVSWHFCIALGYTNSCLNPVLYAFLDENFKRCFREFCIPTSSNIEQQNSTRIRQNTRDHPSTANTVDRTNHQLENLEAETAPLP
Description: Binding data of the compounds on the μ opioid receptor and data on the inhibition of reuptake of serotonin (5-HT) are given in Table 1. The data for the μ receptor were measured at a test concentration of 1 μM, and those for the serotonin reuptake at 10 μM. The values are stated in % inhibition.
Investigation of the Activity of the Compounds of the Invention Method for Determining the Affinity for the Human μ Opiate Receptor
The receptor affinity for the human p opiate receptor is determined in a homogeneous set-up in microtitre plates. For this, dilution series of the substances to be tested are incubated with a receptor membrane preparation (15-40 μg of protein/250 μl of incubation batch) of CHO-K1 cells which express the human p opiate receptor (RB-HOM receptor membrane preparation from PerkinElmer Life Sciences, Zaventem, Belgium) in the presence of 1 nmol/l of the radioactive ligand [^3H]-naloxone (NET719, PerkinElmer Life Sciences, Zaventem, Belgium) and 1 mg of WGA-SPA-Beads (wheat germ agglutinin SPA beads from Amersham/Pharmacia, Freiburg, Germany) in a total volume of 250 μl for 90 minutes at room temperature. 50 mmol/l of Tris-HCl supplemented with 0.06% of bovine serum albumin is used as the incubation buffer. 100 μmol/l of naloxone are additionally added for determination of the non-specific binding. After the end of the ninety-minute incubation time, the microtitre plates are centrifuged for 20 minutes at 1,000 g and the radioactivity is measured in a β-counter (Microbeta-Trilux, PerkinElmer Wallac, Freiburg, Germany). The percentage displacement of the radioactive ligand from its binding to the human p opiate receptor is determined at a concentration of the test substances of 1 μmol/l and stated as the percentage inhibition of the specific binding. Starting from the percentage displacement by various concentrations of the test substances, IC50 inhibitory concentrations which cause a 50 percent displacement of the radioactive ligand are calculated. By conversion by means of the Cheng-Prusoff relationship, Ki values for the test substances are obtained.

[3] = test substance 10 μM, Ca2+ FLIPR, CHO K1 hB1R cells
[4] = CHO-K1, B1R antagonism human, test substance 10 μM, Ca2+ FLIPR, CHO K1 hB1R cells, read-out: B1R Ant. h [10 μM] % Inhibition
[5] = CHO-K1, B1R antagonism rat, test substance 10 μM, Ca2+ FLIPR, CHO K1 rB1R cells, read-out: B1R Ant. r [10 μM] % Inhibition
[6] = CHO-K1, read-out: B1R Ant. h [10 μM] % Inhibition
[7] = CHO-K1, read-out: B1R Ant. r [10 μM] % Inhibition

Row | SMILES | B1R Ant. h [10 μM] % Inhibition [1, 3] [%] | B1R Ant. r [10 μM] % Inhibition ([2]; B1R antagonism rat, test substance 10 μM, Ca2+ FLIPR, CHO K1 rB1R cells) [%] | inhibition at 1 µM (human μ opiate receptor) [%] | inhibition at 10 µM [1, 4] [%] | inhibition at 10 µM [2, 5] [%] | inhibition at 10 µM [1, 6] [%] | inhibition at 10 µM [2, 7] [%]
1 | COc1cc(C)c(S(=O)(=O)N(C)CCOCC(=O)NC2CCC(C(c3ccccc3)N(C)C)CC2)c(C)c1C (centres unmarked) [Example 597, N-[4-(dimethylaminophenylmethyl)-cyclohexyl]-2-{2-[(4-methoxy-2,3,6-trimethylbenzenesulfonyl)-methylamino]-ethoxy}-acetamide] | 72 | −22 | 87 |  |  |  | 
2 | CN(C)C(Cc1ccccc1)C1CCC(NC(=O)COCCN(C)S(=O)(=O)c2c(Cl)cc(Cl)cc2Cl)CC1 (centres unmarked) [Example 616, N-[4-(1-dimethylamino-2-phenylethyl)-cyclohexyl]-2-{2-[methyl-(2,4,6-trichlorobenzenesulfonyl)-amino]-ethoxy}-acetamide] |  |  | 64 | 100 | 43 |  | 
3 | COc1cc(C)c(S(=O)(=O)N(C)CCOCC(=O)NC2CCC(C(c3ccccc3)N3CCCCC3)CC2)c(C)c1C (centres unmarked) [Example 617, 2-{2-[(4-methoxy-2,3,6-trimethylbenzenesulfonyl)-methylamino]-ethoxy}-N-[4-(phenylpiperidin-1-yl-methyl)-cyclohexyl]-acetamide] |  |  | 29 | 86 | 48 |  | 
4 | COc1cc(C)c(S(=O)(=O)N(C)CCOCC(=O)NC2CCC(C(c3ccccc3)N3CCCC3)CC2)c(C)c1C (centres unmarked) [Example 618, 2-{2-[(4-methoxy-2,3,6-trimethylbenzenesulfonyl)-methylamino]-ethoxy}-N-[4-(phenylpyrrolidin-1-yl-methyl)-cyclohexyl]-acetamide] |  |  | 43 | 95 | 3 |  | 
5 | COc1cc(C)c(S(=O)(=O)N(C)CCOCC(=O)NC2CCC(C(c3ccccc3)N3CCOCC3)CC2)c(C)c1C (centres unmarked) [Example 619, 2-{2-[(4-methoxy-2,3,6-trimethylbenzenesulfonyl)-methylamino]-ethoxy}-N-[4-(morpholin-4-yl-phenylmethyl)-cyclohexyl]-acetamide] |  |  | -11 | 56 | 12 |  | 
6 | CN(C)C(c1ccccc1)C1CCC(NC(=O)CCOCN(C)S(=O)(=O)c2c(Cl)cc(Cl)cc2Cl)CC1 (centres unmarked) [Example 620, N-[4-(dimethylaminophenylmethyl)-cyclohexyl]-3-{[methyl-(2,4,6-trichlorobenzenesulfonyl)-amino]-methoxy}-propionamide] |  |  | 92 | 103 | 73 |  | 
7 | CN(C)C(c1ccccc1)C1CCC(CNC(=O)COC2CCCN(S(=O)(=O)c3c(Cl)cc(Cl)cc3Cl)C2)CC1 (centres unmarked) [Example 621, N-[4-(dimethylaminophenylmethyl)-cyclohexylmethyl]-2-[1-(2,4,6-trichlorobenzenesulfonyl)-piperidin-3-yloxy]-acetamide] |  |  | 90 | 88 | 0 |  | 
8 | CN(C)C(c1ccccc1)C1CCC(CNC(=O)COCC2CCCN2S(=O)(=O)c2c(Cl)cc(Cl)cc2Cl)CC1 (centres unmarked) [Example 622, N-[4-(dimethylaminophenylmethyl)-cyclohexylmethyl]-2-[1-(2,4,6-trichlorobenzenesulfonyl)-pyrrolidin-2-ylmethoxy]-acetamide] |  |  | 96 | 106 | 68 |  | 
9 | COc1cc(C)c(S(=O)(=O)N(C)CCOCC(=O)NCC2CCC(C(c3ccccc3)N(C)C)CC2)c(C)c1C (centres unmarked) [Example 623, N-[4-(dimethylaminophenylmethyl)-cyclohexylmethyl]-2-{2-[(4-methoxy-2,3,6-trimethylbenzenesulfonyl)-methylamino]-ethoxy}-acetamide] | 84 |  | 93 |  | 41 |  | 
10 | CN(C)C(c1ccccc1)C1CCC(CNC(=O)CCOCN(C)S(=O)(=O)c2c(Cl)cc(Cl)cc2Cl)CC1 (centres unmarked) [Example 624, N-[4-(dimethylaminophenylmethyl)-cyclohexylmethyl]-3-{[methyl-(2,4,6-trichlorobenzenesulfonyl)-amino]-methoxy}-propionamide] |  |  | 98 | 104 | 81 |  | 
11 | COc1ccccc1-c1noc(C(=O)NCC(=O)NCC2CCC(C(c3cccc(F)c3)N(C)C)CC2)n1 (centres unmarked) [Example 787, 3-(2-methoxy-phenyl)-[1,2,4]oxadiazole-5-carboxylic acid [({4-[dimethylamino-(3-fluoro-phenyl)-methyl]-cyclohexylmethyl}-carbamoyl)-methyl]-amide] |  |  |  | 19 | 11 |  | 
12 | CN(C)C(CCc1ccccc1)C1CCC(NC(=O)CCNC(=O)c2nc(-c3ccc(Cl)cc3Cl)no2)CC1 (centres unmarked) [Example 788, 3-(2,4-dichloro-phenyl)-[1,2,4]oxadiazole-5-carboxylic acid {2-[4-(1-dimethylamino-3-phenyl-propyl)-cyclohexylcarbamoyl]-ethyl}-amide] |  |  |  | 90 | 11 |  | 
13 | COc1ccc(-c2noc(C(=O)NCCC(=O)NC3CCC(C(CCc4ccccc4)N(C)C)CC3)n2)cc1OC (centres unmarked) [Example 789, 3-(3,4-dimethoxy-phenyl)-[1,2,4]oxadiazole-5-carboxylic acid {2-[4-(1-dimethylamino-3-phenyl-propyl)-cyclohexylcarbamoyl]-ethyl}-amide] |  |  |  | -11 | -6 |  | 
14 | CN(C)C(CCc1ccccc1)C1CCC(NC(=O)CNC(=O)c2nc(-c3cc(Cl)cc(Cl)c3)no2)CC1 (centres unmarked) [Example 790, 3-(3,5-dichloro-phenyl)-[1,2,4]oxadiazole-5-carboxylic acid {[4-(1-dimethylamino-3-phenyl-propyl)-cyclohexylcarbamoyl]-methyl}-amide] |  |  |  | 35 | 11 |  | 
15 | CN(C)C(CCc1ccccc1)C1CCC(NC(=O)CNC(=O)c2nc(-c3ccccn3)no2)CC1 (centres unmarked) [Example 791, 3-pyridin-2-yl-[1,2,4]oxadiazole-5-carboxylic acid {[4-(1-dimethylamino-3-phenyl-propyl)-cyclohexylcarbamoyl]-methyl}-amide] |  |  |  |  |  | -3 | 16
16 | CN(C)C(CCc1ccccc1)C1CCC(NC(=O)CCNC(=O)c2nc(-c3ccc4c(c3)OCO4)no2)CC1 (centres unmarked) [Example 792, 3-benzo[1,3]dioxol-5-yl-[1,2,4]oxadiazole-5-carboxylic acid {2-[4-(1-dimethylamino-3-phenyl-propyl)-cyclohexylcarbamoyl]-ethyl}-amide] |  |  |  |  |  | 9 | 2
17 | CN(C)C(CCc1ccccc1)C1CCC(NC(=O)CNC(=O)c2nc(-c3c(Cl)cccc3Cl)no2)CC1 (centres unmarked) [Example 793, 3-(2,6-dichloro-phenyl)-[1,2,4]oxadiazole-5-carboxylic acid {[4-(1-dimethylamino-3-phenyl-propyl)-cyclohexylcarbamoyl]-methyl}-amide] |  |  |  | 104 | 6 |  | 
